In general, EC50 refers to the concentration needed to bring the measured effect to its halfway point.

Drawing on ChEMBL document CHEMBL1144789, “Identification of fredericamycin E from Streptomyces griseus: Insights into fredericamycin A biosynthesis highlighting carbaspirocycle formation” (J Nat Prod, 2008), this text covers EC50 for two compounds.

Type in all cases: functional, cell-based
Test [1] is described as follows: Cytotoxicity against mouse P388D1 cells by calcein AM/[…] fluorometric detection.
The test system of a further test is DU-145. Kind of test: Cytotoxicity against human Du145 cells by calcein AM/[…] fluorometric detection.
Another test concerns HCT-15. Kind of test: Cytotoxicity against human HCT15 cells by calcein AM/[…] fluorometric detection.
For a further test, the system named is HT-29. The test can be described thus: Cytotoxicity against human HT29 cells by calcein AM/[…] fluorometric detection.
The next test concerns MCF7. Kind of test: Cytotoxicity against human MCF7 cells by calcein AM/[…] fluorometric detection.
The test system of the next test is A549. The test can be described thus: Cytotoxicity against human A549 cells by calcein AM/[…] fluorometric detection.

Turning to `C/C=C/C=C/c1cc2cc3c(c(O)c2c(=O)[nH]1)[C@@]1(CC3)C(=O)c2c(O)c3c(c(O)c2C1=O)C(=O)C(OC)=CC3=O` [FDM A], the EC50 in test [1] is 50 nM; in the test with DU-145, 2700 nM; in the test on HCT-15, 2400 nM; in the test on HT-29 it was 570 nM; in the test with MCF7, 360 nM; with A549, 1800 nM.

For the compound `C/C=C/C=C/c1cc2cc3c(c(O)c2c(=O)[nH]1)[C@@]1(CC3)C(=O)C(=O)c2c(c(O)c3c(O)c(OC)cc(O)c3c2O)C1=O` [FDM E], the EC50 in test [1] was 170 nM; in the test with DU-145, 8100 nM; in the test on HCT-15 it was 4000 nM; in the test with HT-29, 3600 nM; in the test on MCF7, 7300 nM; in the test with A549 it was 4100 nM.
